Columns and labels:
in vitro = settings: human, Caco-2
Procedure: The Caco-2 assay was performed according to the procedure described in the following cited article [Caco-2 Monolayers in Experimental and Theoretical Predictions of Drug Transport, Artursson P, Palm K, Luthman K., Adv. Drug Deliv. Rev., 2001, 46, 27-43].

3T3 cell line = assay: Cell proliferation assay (CellTiter 96 AQueous One) as indicator of toxicity, 3T3; format: cell-based; settings: 3T3, 100 μM
Procedure: A simple cell proliferation assay was used to determine the in vitro cytotoxicity of “compound 1.” Selected cell lines were cultured according to their specific requirements. The optimal cell density required for each cell line was determined. All compounds were tested at a single concentration in triplicate. Cell viability was determined using the CellTiter 96® AQueous One reagent from Promega Corporation.
Assays are performed by adding the test compound to the cells in culture and incubating the cells for a fixed period. The number of viable cells remaining after the incubation period is determined by adding a small amount of the CellTiter 96® AQueous One Solution Reagent directly to culture wells, incubating for 1-4 hours and then recording absorbance at 490 nm with a 96 well plate reader.
Controls in the assay include untreated cells, wells without cells and cells treated with know cytotoxic agents. Data is presented as % inhibition of cell proliferation.

SSTR-1 = target: T1, SSTR-1 (Homo sapiens, UniProt P30872); assay: Radioligand binding screen against somatostatin subtype SSTR-1; settings: concentration required to displace 50% of the competitive radioligand; read-out: IC50 SSTR1
T1 construct: expressed in transfected cells
Procedure: Receptor membrane preparations containing the desired cloned receptor (for example cloned human somatostatin receptor subtype 5, SSTR5) and radio-labeled ligand (for example 3-[^125I]iodotyrosyl^11 Somatostatin-14)) were diluted at the concentration required for testing and according to the specific parameters associated with the selected receptor-ligand combination, including receptor Bmax, ligand Kd and any other parameters necessary to optimize the experimental conditions. When tested for competition activity to the reference ligand, “compound 1” was mixed with membrane suspension and the radiolabeled reference ligand (with or without an excess of cold ligand to the receptor for determination of non-specific binding) and incubated at the temperature required by internal standard operating procedures. Following incubation, the binding reaction was stopped by the addition of ice-cold washing buffer and filtered on appropriate filters, which are then counted. Data analysis and curve-fitting was performed with XLfit (IDBS).
10 mM solutions of test compounds in 100% DMSO were prepared. ˜160 μl was used for each dilution (20 μl/well in triplicate).
A 1.25 mM assay stock was prepared by making a 1:8 dilution of the 10 mM solution. (To 30 μL of the 10 mM solution was added 210 μL milli-Q H2O. A 1:5 dilution series in milli-Q H2O was then prepared.
In primary screening experiments compounds were tested in duplicate for a particular concentration.

[1] = system: PC-3 human prostate tumour xenograft; assay: Nude mouse model of human PC-3 prostate tumours; format: in vivo, nude mice; settings: PC-3 xenograft
Procedure: Initial Maximum Tolerated Dose (MTD) studies were done in male nude mice to determine the appropriate intravenous dosing regimen for the PC-3 human prostate tumour model. A range of doses between 0 and 50 mg/Kg for 28 days (qdx28) were tested. Mice were randomized into groups with 5 animals per group including vehicle control. Animals were weighed twice weekly starting on day one and observed daily for adverse reactions or toxicity due to the agent. MTD studies determined the selection of 20 mg/kg and 35 mg/kg for intravenous dosing once per day for 28 days in the PC-3 human prostate tumour xenograft model.
Male nude mice (nu/nu) between 5 and 6 weeks of age weighing approximately 25 g were implanted subcutaneously (s.c) by trocar with fragments of PC-3 human tumour carcinomas harvested from s.c growing tumours in host mice. PC-3, is a metastatic human prostate adenocarcinoma cell line originating from a person. When tumours reached approximately 36 mm^3 in size animals were pair matched into treatment and control groups with 10 mice in each group. […]
At the end of the treatment period the mice were weighed and sacrificed. Each tumour was excised and weighed and a mean actual tumour weight (mg) per group was calculated along with the mean actual volume ([…]). […] Mean tumour regression was determined using the formula [1−(mean actual tumour weightFINAL/mean tumour weightDAY 1)×100%].

[2] = system: Human Umbilical Vein Endothelial Cells (HUVEC); assay: Endothelial cell proliferation assay (MTS); format: cell-based; settings: 48 hrs
Procedure: Human Umbilical Vein Endothelial Cells (HUVEC from Clonetics) were plated in 96 well plates at 1000 cell per well in EGM-2 medium (Clonetics). Cells were grown overnight at 37° C. in 5% CO2. Fresh EGM-2 medium containing compound at the desired concentration was added to the wells and the cells allowed to grow for a further 48 hrs. A MTS (Promega) colorimetric assay was performed after 48 hrs to determine cell growth according to the manufacturers instructions. Results are presented in terms of percentage growth.

[3] = Human hepatocyte microsomal degradation half-life; format: in vitro ADME
Procedure: the final concentration of ACN in the microsomal incubation was 1%,
samples were incubated in a water bath at 37° C., and
45 μL aliquots were taken over 2 hr, quenched with ACN, placed on ice for 30 min to precipitate proteins and assayed by LC/MS/MS using either the Quattro Ultima Pt, LCT or Q-T of instruments.

[4] = predicted from human microsomal degradation

T1 sequence (P30872 whole entry, species assumed): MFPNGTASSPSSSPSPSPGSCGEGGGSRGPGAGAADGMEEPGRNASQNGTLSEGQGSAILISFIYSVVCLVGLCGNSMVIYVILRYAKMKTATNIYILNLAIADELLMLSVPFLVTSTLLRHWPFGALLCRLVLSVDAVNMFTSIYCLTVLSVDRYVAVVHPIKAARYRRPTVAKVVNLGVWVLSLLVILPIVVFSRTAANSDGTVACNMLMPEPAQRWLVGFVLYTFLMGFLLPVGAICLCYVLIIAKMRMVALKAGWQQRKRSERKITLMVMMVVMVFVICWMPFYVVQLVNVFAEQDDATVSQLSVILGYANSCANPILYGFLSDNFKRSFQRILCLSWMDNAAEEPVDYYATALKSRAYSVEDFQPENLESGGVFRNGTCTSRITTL

Papp (in vitro): 1.04 ×10⁻⁶ cm/s
IC50 (SSTR-1): > 12.5 µM
CLint scaled ([3]; human hepatocyte microsomes, pH 7.4, predicted from human microsomal degradation): 62.2 mL/min/kg
half-life ([3]; human hepatocyte microsomes, human microsomal incubation, 37° C., pH 7.4, read-out: Degradation t1/2): 32.2 min
Predicted CLblood [3, 4]: 15.5 mL/min/kg
Predicted EH [3, 4]: 0.75
Structure (SMILES): COC[C@H]1O[C@H](OCCc2ccccc2)[C@H](NC(=O)CCCN)[C@@H](OCc2ccc3ccccc3c2)[C@@H]1O [Compound 1]
Inhibition of cell proliferation (3T3 cell line): no inhibitory effect
Tumour growth inhibition (TGI) ([1]; 20 mg/kg i.v. daily): 34%
Tumour growth inhibition (TGI) ([1]; 35 mg/kg i.v. daily): 34%
Percent cell growth at 125 µM ([2]; 125 uM): 69%
Percent cell growth at 250 µM ([2]; 250 uM): 17%

Reference: US20080280837A1, “Biologically Active Compounds with Anti-Angiogenic Properties” (priority 2004, published 2008)
